Values of other authors, collected in paper PMC5201331, “Subchronic Toxicities of HZ1006, a Hydroxamate-Based Histone Deacetylase Inhibitor, in Beagle Dogs and Sprague-Dawley Rats” (International Journal of Environmental Research and Public …, 2016).

How the values were obtained:
patients = system: patients; parameters: method as in PMID 12440223; settings: day-1 and -5 schedule every 21 days; cited from earlier work
rats = system: rats; parameters: method as in PMID 19903873; settings: rats, 20, 50 or 150 mg/kg/day, 26 weeks orally dosed daily with 4-week recovery; cited from earlier work
dogs = system: dogs; parameters: method as in PMID 19903873; settings: 26 weeks orally dosed daily with 4-week recovery; cited from earlier work

C/C=C1\NC(=O)[C@H]2CSSCC/C=C/[C@H](CC(=O)N[C@H](C(C)C)C(=O)N2)OC(=O)[C@H](C(C)C)NC1=O [depsipeptide]
MTD (patients): 17.8 mg/m^2

O=C(CCCCCCC(=O)Nc1ccccc1)NO [vorinostat, suberoylanilide hydroxamic acid]
no-observed adverse effect level (rats): not established
no-observed adverse effect level (dogs): 60 mg/kg/day
